Data on one molecule can be found in ChEMBL document CHEMBL1255357, “Enrichment of fluoroquinolone-resistant Staphylococcus aureus: oscillating ciprofloxacin concentrations simulated at the upper and lower portions of the mutant selection window” (Antimicrob Agents Chemother, 2008).

Activity calls are given as the source filed them. The calls are words filed in the database; no cut-off is given here.

Assay [1] deals with Staphylococcus aureus. Kind of assay: Antimicrobial activity against methicillin-resistant Staphylococcus aureus ATCC 43300 assessed as mutant prevention concentration after 48 hrs. In kind it is functional, organism-based.
Assay [2] has as its system Staphylococcus aureus. Kind of assay: Antimicrobial activity against methicillin-resistant Staphylococcus aureus ATCC 6538 assessed as mutant prevention concentration after 48 hrs. Format: functional, organism-based.

Take `O=C(O)c1cn(C2CC2)c2cc(N3CCNCC3)c(F)cc2c1=O`: the result in assay [1] and in assay [2] was Active.
